Legend:
[1] = mn = molality of the nth substance listed, in mol/kg; settings: 101 kPa, Liquid; for speed of sound: Sing-around technique in a fixed-path interferometer; for mass density: Vibrating tube method
[2] = 313.15 K; 101 kPa; Liquid; Sing-around technique in a fixed-path interferometer

O=C[O-].[NH3+]CCCO [3-hydroxypropylammonium formate] + O
[1]
Settings | mass density, 298.15 K [kg/m3] | mass density, 303.15 K [kg/m3] | mass density, 308.15 K [kg/m3] | mass density, 313.15 K [kg/m3] | mass density, 318.15 K [kg/m3] | speed of sound, 298.15 K [m/s] | speed of sound, 303.15 K [m/s] | speed of sound, 308.15 K [m/s] | speed of sound, 313.15 K [m/s] | speed of sound, 318.15 K [m/s]
m1 = 0.1 | 998.637 | 997.222 | 995.623 | 993.757 | 991.751 | 1501.7 | 1513.4 | 1523.7 | 1532.4 | 1539.7
m1 = 0.2 | 1000.2 | 998.76 | 997.068 | 995.252 | 993.147 | 1507.7 | 1519 | 1528.9 | 1538.2 | 1545.2
m1 = 0.3 | 1001.76 | 1000.3 | 998.625 | 996.753 | 994.624 | 1513.5 | 1524.4 | 1533.9 | 1542 | 1548.6
m1 = 0.4 | 1003.33 | 1001.84 | 999.944 | 998.26 | 996.183 | 1519.7 | 1530.3 | 1539.6 | 1547.4 | 1553.8

O=C[C@H](O)[C@@H](O)[C@H](O)[C@H](O)CO [D-glucose] + O
[1]
Settings | mass density, 298.15 K [kg/m3] | mass density, 303.15 K [kg/m3] | mass density, 308.15 K [kg/m3] | mass density, 313.15 K [kg/m3] | mass density, 318.15 K [kg/m3] | speed of sound, 298.15 K [m/s] | speed of sound, 303.15 K [m/s] | speed of sound, 308.15 K [m/s] | speed of sound, 313.15 K [m/s] | speed of sound, 318.15 K [m/s]
m1 = 0.04842 | 1000.33 | 998.923 | 997.289 | 995.463 | 993.441 | 1499.3 | 1512.1 | – | 1531.8 | –
m1 = 0.06669 | 1001.56 | 1000.14 | 998.498 | 996.672 | 994.638 | – | 1513.2 | 1523.1 | 1532.9 | 1539.7
m1 = 0.0976 | 1003.62 | 1002.18 | 1000.53 | 998.7 | 996.647 | 1502.3 | 1515.1 | 1525 | 1534.6 | 1541.4
m1 = 0.1066 | 1004.22 | 1002.77 | 1001.12 | 999.285 | 997.23 | 1502.9 | 1515.6 | 1525.5 | 1535.1 | 1541.9
m1 = 0.1235 | 1005.32 | 1003.87 | 1002.21 | 1000.38 | 998.311 | 1504 | 1516.7 | 1526.6 | 1536.1 | 1542.8
m1 = 0.1462 | – | 1005.34 | 1003.67 | 1001.84 | 999.761 | 1505.4 | 1518.1 | – | 1537.3 | –

O=C[C@H](O)[C@H](O)[C@H](O)CO [D-ribose] + O
[1]
Settings | mass density, 298.15 K [kg/m3] | mass density, 303.15 K [kg/m3] | mass density, 308.15 K [kg/m3] | mass density, 313.15 K [kg/m3] | mass density, 318.15 K [kg/m3] | speed of sound, 298.15 K [m/s] | speed of sound, 303.15 K [m/s] | speed of sound, 308.15 K [m/s] | speed of sound, 313.15 K [m/s] | speed of sound, 318.15 K [m/s]
m1 = 0.0504 | 999.789 | 998.382 | 996.751 | 994.911 | 992.887 | 1498.8 | 1511.5 | 1521.3 | 1531.3 | 1538.2
m1 = 0.06883 | 1000.78 | 999.363 | 997.73 | 995.882 | 993.852 | 1499.8 | 1512.3 | 1522.2 | 1532.1 | 1539
m1 = 0.08626 | 1001.7 | 1000.29 | 998.651 | 996.793 | 994.758 | 1500.7 | 1513.1 | 1523 | 1532.9 | 1539.7
m1 = 0.1107 | 1003 | 1001.58 | 999.932 | 998.065 | 996.017 | 1502 | 1514.3 | 1524.1 | 1534 | 1540.7
m1 = 0.136 | 1004.33 | 1002.89 | 1001.25 | 999.37 | 997.311 | 1503.3 | 1515.5 | 1525.3 | 1535.1 | 1541.8
m1 = 0.1566 | 1005.39 | 1003.96 | 1002.31 | 1000.41 | 998.355 | 1504.4 | 1516.5 | 1526.3 | 1536 | 1542.7

O [water]
Settings | speed of sound [m/s]
[2] | 1528.9
